Assays:
hCA IX = hCA IX (Homo sapiens, UniProt Q16790); assay: stopped-flow CO2 hydrase assay, hCA IX
Method: An Applied Photophysics stopped-flow instrument was used for assaying the CA catalysed CO2 hydration activity. […] In particular, CO2 was bubbled in distilled deionised water for 30 min so that the water was saturated (the concentration at a specific temperature is known from literature). In addition, a CO2 assay kit (from Sigma) was used to measure the concentration in variously diluted solutions obtained from the saturated one (which was kept at the same temperature and a constant bubbling during the experiments). […] The uncatalysed rates were determined in the same manner and subtracted from the total observed rates. Stock solutions of inhibitor (0.1 mM) were prepared in distilled-deionised water and dilutions up to 0.01 nM were done thereafter with distilled-deionised water. Inhibitor and enzyme solutions were pre-incubated together for 15 min–2 h (or longer, i.e. 4–6 h) at room temperature (at 4 °C for the incubation periods longer than 15 min) prior to assay, in order to allow for the formation of the E-I complex. The inhibition constants were obtained by non-linear least-squares methods using PRISM 3 and the Cheng-Prusoff equation[25] ^, [26], as reported earlier, and represent the mean from at least three different determinations. hCA I was purchased by Sigma-Aldrich and used without further purification, whereas all the other hCA isoforms were recombinant ones obtained in-house as reported earlier[27] ^, [28].

hCA I = hCA I (Homo sapiens, UniProt P00915); assay: stopped-flow CO2 hydrase assay, hCA I
Method: (§1) An Applied Photophysics stopped-flow instrument was used for assaying the CA catalysed CO2 hydration activity. […] In particular, CO2 was bubbled in distilled deionised water for 30 min so that the water was saturated (the concentration at a specific temperature is known from literature). In addition, a CO2 assay kit (from Sigma) was used to measure the concentration in variously diluted solutions obtained from the saturated one (which was kept at the same temperature and a constant bubbling during the experiments). […] The uncatalysed rates were determined in the same manner and subtracted from the total observed rates. Stock solutions of inhibitor (0.1 mM) were prepared in distilled-deionised water and dilutions up to 0.01 nM were done thereafter with distilled-deionised water. Inhibitor and enzyme solutions were pre-incubated together for 15 min–2 h (or longer, i.e. 4–6 h) at room temperature (at 4 °C for the incubation periods longer than 15 min) prior to assay, in order to allow for the formation of the E-I complex. […]

hCA II = hCA II (Homo sapiens, UniProt P00918); assay: stopped-flow CO2 hydrase assay, hCA II
Method: as §1

hCA I, sequence (P00915 whole entry): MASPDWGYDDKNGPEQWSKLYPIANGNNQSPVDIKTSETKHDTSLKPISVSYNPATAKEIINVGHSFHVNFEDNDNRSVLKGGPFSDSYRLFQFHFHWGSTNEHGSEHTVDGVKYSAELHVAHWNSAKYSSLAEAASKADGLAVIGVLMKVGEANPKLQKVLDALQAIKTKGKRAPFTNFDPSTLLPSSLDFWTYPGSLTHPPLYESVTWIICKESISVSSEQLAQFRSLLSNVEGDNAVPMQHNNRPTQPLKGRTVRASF

Row | Ki (hCA IX) | Selectivity ratio I/IX (hCA IX; KI hCA I / KI hCA IX) | Selectivity ratio II/IX (hCA IX; KI hCA II / KI hCA IX) | fold higher affinity than its rhenium complex 4a (hCA IX; hCA IX, Ki(3a) vs Ki(4a)) | Ki (hCA I) | Ki (hCA II) | melting point | SMILES
1 | 2.8 nM | 64.75 | 1.46 | 7 fold | 181 nM | 4.1 nM | 244 to 248 °C | NS(=O)(=O)c1ccc(-n2cc(-c3ccccn3)nn2)cc1 [3a, 4-(4–(2-pyridyl)-1H-1,2,3-triazol-1-yl)-benzenesulfonamide]
2 |  |  |  |  | 305 nM | 56.1 nM | 192 to 195 °C | NS(=O)(=O)c1ccc(Cn2cc(-c3ccccn3)nn2)cc1 [3b, 4–(4-(2-pyridyl)-1H-1,2,3-triazol-1-ylmethyl)-benzenesulfonamide]

Reference: paper PMC6407592, “Novel Re(I) tricarbonyl coordination compounds based on 2-pyridyl-1,2,3-triazole derivatives bearing a 4-amino-substituted benzenesulfonamide arm: synthesis, crystal structure, computational studies and inhibitory activity against carbonic anhydrase I, II, and IX isoforms†” (Journal of Enzyme Inhibition and Medicinal Chemistry, 2019)
